These results are taken from US5134235A, “Process for separating folinic acid” (Eprova A.G., priority 1987, dated 1992).

A short description of one data set: Solubility in water. Conditions: for solubility in water (in words): qualitative; for solubility: water. The class given is physicochemical.
For data set [1] the following is noted: cited: J. A. Straw et al, Cancer Research 44, 3114 (1984); cited from earlier work.
The conditions of data set [2]: cited: J. A. Straw et al, Cancer Research 44, 3114 (1984); cited from earlier work. The source holds these as a separate data set.
Data set [3] in a line: Stability of folinic acid at higher pH during recrystallization. The class given is physicochemical. The settings on record: pH above the 8.5 to 12 range of the first recrystallization.

Molecules are shown by their SMILES. Where two headings read alike, the source gives them in different places.

With `Nc1nc(=O)c2c([nH]1)NC[C@H](CNc1ccc(C(=O)N[C@@H](CCC(=O)O)C(=O)O)cc1)N2C=O` [Sodium-(6S)-folinate], the “solubility in water (in words)” value in the data set “Solubility in water” is “readily soluble”.
One may read the solubility as the dissolved amount per volume that the medium holds. `Nc1nc(=O)c2c([nH]1)NC[C@H](CNc1ccc(C(=O)N[C@@H](CCC(=O)O)C(=O)O)cc1)N2C=O` [magnesium-(6S)-folinate, Magnesium-(6S)-folinate]: the Solubility in water in the data set “Solubility in water” (at 20° C.) worked out at 2.4 g/100 ml. The solubility in the data set “Solubility in water” (general statement in description, temperature not given, read-out: water solubility) is above 20 mg/mL.
Turning to `Nc1nc(=O)c2c([nH]1)NC[C@H](CNc1ccc(C(=O)N[C@@H](CCC(=O)O)C(=O)O)cc1)N2C=O` [calcium-(6S)-folinate, Calcium-(6S)-folinate], the “strength of aqueous solution that can be formed” value in “Solubility in water” (at 20° C., aqueous solution) is given as 0.95%. Moreover, the solubility in the data set “Solubility in water” (at 40° C., read-out: Solubility in water) came out at 15 mg/mL.
For the compound `Nc1nc2c(c(=O)[nH]1)N(C=O)[C@H](CNc1ccc(C(=O)N[C@@H](CCC(=O)O)C(=O)O)cc1)CN2` [5-CHO-(6R)-H4 PteGlu], the biochemical activity result in data set [1] is “biochemically inactive”. In addition, in data set [2], the “elimination through the urine” value is “slowly eliminated through the urine” and the metabolism entry was “barely metabolized”.
On to `Nc1nc(=O)c2c([nH]1)NC[C@H](CNc1ccc(C(=O)N[C@@H](CCC(=O)O)C(=O)O)cc1)N2C=O` [Potassium-(6S)-folinate], for which the “solubility in water (in words)” value in the data set “Solubility in water” is “readily soluble”.
Take `Nc1nc2c(c(=O)[nH]1)N(C=O)C(CNc1ccc(C(=O)N[C@@H](CCC(=O)O)C(=O)O)cc1)CN2` (stereo partly drawn) [folinic acid, N-(5-formyl-(6R,S)-5,6,7,8-tetrahydro-pteroyl)-L-glutamic acid]: in data set [3], the “stability at higher pH” value is “appreciably lower”.
Regarding `Nc1nc(=O)c2c([nH]1)NC[C@H](CNc1ccc(C(=O)N[C@@H](CCC(=O)O)C(=O)O)cc1)N2C=O` [(6S)-folinic acid, N-(5-formyl-(6S)-5,6,7,8-tetrahydro-pteroyl)-L-glutamic acid], the “solubility in water (in words)” value in the data set “Solubility in water” is “barely soluble”.
